# Assay results reported in patent US8841277B2, “Methods for treating non-small cell lung cancer using 5-azacytidine” (Celgene Corporation, priority 2009, dated 2014).
# “Also recorded” adds a separate entry of the source.
# Legend:
# A549 cells [1] = test: Apoptosis (AnnexinV-FITC/7-AAD), A549; assay type: cell-based; settings: 0.3-10 μM
# Excerpt: (§1) For cell cycle distribution, cells were stained with the NIM-DAPI reagent (Beckman Coulter, Inc.; Fullerton, Calif.). For measurement of early- and late-apoptotic cell populations, cells were stained with AnnexinV-FITC and 7-AAD reagents (Beckman Coulter, Inc.). Samples were processed according to manufacturer's instructions and analyzed on a Cell Lab Quanta MPL flow cytometer (Beckman Coulter, Inc.). […] Data were also collected for untreated cells as control.
# A549 cells [2] = test: Cell viability (CyQuant assay), A549; assay type: cell-based; settings: 72 hours; for HillSlope / LogIC50 / IC50: A549 viability, best-fit value; for LogIC50: log(inhibitor) vs. normalized response -- Variable slope; for EC50 / IC50: Homo sapiens; for EC50: A549, read-out: EC50 of effect on viability
# Experimental: (§2) Certain NSCLC cell lines (H460, H1299, A549, and H1975) were purchased from American Type Culture Collection (ATCC; Manassas, Va.). The H23NSCLC cell line was obtained from the National Cancer Institute (NCI; Bethesda, Md.). Cell lines were cultured in their respective media, as recommended by ATCC and NCI. AZA was manufactured at Aptuit (Greenwich, Conn.) for Celgene (Summit, N.J.), while DAC was purchased from Sigma-Aldrich (St. Louis, Mo.). In all experiments, cells were seeded 24 hours before drug treatment and incubated at 37° C./5% CO2, For cell viability assays, H460, H1299, A549, H23, and H1975 cells were seeded in triplicate at 1×10^3, 1×10^3, 1×10^3, 4×10^3, and 4×10^3 cells per well, respectively, in 96-well plates, using 200 μL of medium per well. Fresh drug was added every 24 hours by replacing medium with drug-containing medium. For all other assays, cells were seeded at 0.6-1.2×10^5 cells per well, in 6-well plates, using 4 mL of medium per well, with fresh drug added directly to the medium every 24 hours.
# (§3) Cell viability was assessed using the CyQuant assay (Life Technologies Corporation; Carlsbad, Calif.). Fluorescence was measured with a spectrophotometer (Molecular Devices; Sunnyvale, Calif.), and EC50 values were calculated in Prism® version 5.01 (GraphPad Software, Inc.; La Jolla, Calif.), using results from three independent experiments.
# (§4) The six data sets represent calculations of EC50 values from raw data using Prism®. The standard deviation among the three independent experiments was determined at each drug concentration. For some of the cell lines, Prism® was not able to calculate the EC50 for DAC. For those curves that an EC50 was available, the SE (Std. Error) was acceptable (SE of the logEC50 should be less than 0.5), meaning that the standard errors were not too large. The 95% Confidence Intervals for the EC50 were considered as a measure of error.
# H460 cells [3] = test: Cell cycle distribution (NIM-DAPI), H460; assay type: cell-based
# Excerpt: (§5) These studies examined the cell cycle distribution of NSCLC cells treated with AZA or DAC using NIM-DAPI analysis.
# as §1
# A549 cells [4] = test: Gene expression microarray analysis, A549; assay type: cell-based, human; settings: 48 hours; for Downregulated Genes: AZA-Specific / DAC-Specific Genes (number) / Upregulated Genes: AZA-Specific / DAC-Specific Genes (number) / Downregulated Genes: Genes in Common (number) / Upregulated Genes: Genes in Common (number) / Regulation of genes in the Response to DNA Damage Stimulus/DNA Repair biogroup: A549; for Downregulated Genes: Genes in Common (number) / Upregulated Genes: Genes in Common (number): regulated by both AZA and DAC;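 as to Downregulated Genes: AZA-Specific / DAC-Specific Genes (number): drug dose range 0.3 to 3 µM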;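 as to Downregulated Genes: Genes in Common (number): drug dose range 0.3 to 3 µM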;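 as to Upregulated Genes: AZA-Specific / DAC-Specific Genes (number): drug dose range 0.3 to 3 µM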;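 as to Upregulated Genes: Genes in Common (number): drug dose range 0.3 to 3 µM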
# Experimental: Cells were lysed using the TRIzol reagent (Life Technologies Corporation) and total RNA was isolated using miRNeasy (Qiagen). Double-stranded cDNA and biotin-labeled cRNA were synthesized using 100 ng of total RNA using Ambion's MessageAmp Premier RNA Amplification Kit (ABI; Foster City, Calif.). Biotin-labeled cRNA, at 10 μg, was fragmented and hybridized to each human U133A 2.0 genechip (Affymetrix; Santa Clara, Calif.). The GC-RMA algorithm was used for normalization and all analyses were done using GeneSpring 7.3 (Agilent; Santa Clara, Calif.). Averaged signals from biological duplicate samples were used to determine fold change (Treated vs. Untreated), with an absolute fold change of ≧1.7 defining regulated genes. NextBio was used to identify regulated Gene Ontology biogroups from lists of regulated genes. The top 15 biogroups are those with the lowest p-values calculated within NextBio.
# The number of genes modulated in common between the two drugs was low.
# Functional groupings of the modulated genes were determined using Gene Ontology classifications in Nextbio (http://www.nextbio.com/).
# DNMT1 [5] = test: DNMT1 protein depletion, H1299; assay type: cell-based; settings: for DNMT1 protein levels: dose range
# Experimental: For western analyses of protein levels, cells were washed with PBS and lysed with RIPA buffer (Cell Signaling Technology, Inc.; Danvers, Mass.) containing 350 mM NaCl and 0.1% SDS. Cell lysates were sonicated with two 5-second bursts under low amplitude (20%) using the Digital Sonic Dismembrator (Thermo Fisher Scientific, Inc.; Waltham, Mass.). Proteins were separated on 4-12% Bis-Tris NuPAGE gels (Life Technologies Corporation) and transferred to nitrocellulose membranes. DNMT1, phos-Histone-H2AX(Ser139), total Histone-H2AX, cleaved-PARP, p21, p53, and alpha-tubulin were detected using the Li-Cor Odyssey imaging system (Li-Cor Biotechnology; Lincoln, Nebr.), following incubation with the appropriate primary and secondary antibodies. The phos-Histone-H2AX(Ser139), cleaved-PARP, and p21 antibodies were from Cell Signaling Technology, Inc. The p53 and total Histone-H2AX (C-20) antibodies were from Santa Cruz Biotechnology, Inc. (Santa Cruz, Calif.). The alpha-tubulin and DNMT1 antibodies were purchased from EMD Chemicals, Inc. (Gibbstown, N.J.) and Abcam, Inc. (Cambridge, Mass.), respectively. The goat anti-Rabbit IRDye 680, goat anti-Mouse IRDye 800CW, and donkey anti-Goat IRDye 800CW secondary antibodies were from Li-Cor Biotechnology.
# (§6) Reduced DNMT1 levels were detected in these cell lines as early as 4 hours after drug treatment (FIG. 17).
# H1299 cells [6] = test: Cell viability (CyQuant assay), H1299; assay type: cell-based; settings: 72 hours; for HillSlope / LogIC50 / IC50: H1299 viability, best-fit value; for EC50 / IC50: Homo sapiens, NCI-H1299; for EC50: H1299, read-out: EC50 of effect on viability
# Experimental: as §2, §3, §4
# H1299 cells [7] = test: Apoptosis (AnnexinV-FITC/7-AAD), H1299; assay type: cell-based; settings: 0.3-10 μM
# Excerpt: as §1
# DNMT1 [8] = test: DNMT1 protein depletion, H23; assay type: cell-based; settings: H23 cell line
# Experimental: as §6
# H460 cells [9] = test: Apoptosis (AnnexinV-FITC/7-AAD), H460; assay type: cell-based; settings: 0.3-10 μM
# Excerpt: as §1
# H1975 cells = test: Cell cycle distribution (NIM-DAPI), H1975; assay type: cell-based; settings: 72-hour treatment, 0.3-10 μM
# Excerpt: as §5, §1
smiles,measurement,setting,value
"Nc1ncn([C@@H]2O[C@H](CO)[C@@H](O)[C@H]2O)c(=O)n1 [AZA, 4-amino-1-β-D-ribofuranosyl-1,3,5-triazin-2(1H)-one]",Early- and late-apoptotic cell populations (AnnexinV/7-AAD),A549 cells [1]; 48-hour treatment,dramatic increase in early-apoptotic (AnnexinV^+ 7-AAD^−) and late-apoptotic (AnnexinV^+ 7-AAD^+) cells
same,HillSlope,A549 cells [2],−1.108
same,LogIC50,A549 cells [2],0.8033
same,EC50,A549 cells [2],6.4 µM
same,IC50,A549 cells [2],6.36 µM
same,Cell cycle distribution (NIM DAPI),"H460 cells [3]; 30-hour treatment, 0.3-10 μM",induced accumulation of cells in Sub-G1
same,Cell cycle distribution (NIM DAPI),"H460 cells [3]; 60-hour treatment, 0.3-10 μM",decrease of cells in G0/G1 with a concomitant increase of cells in Sub-01
same,Cell cycle distribution (NIM DAPI),H460 cells [3]; summary of studies,induced accumulation of cells in Sub-G1
same,Downregulated Genes: AZA-Specific / DAC-Specific Genes (number),A549 cells [4]; 0.3 μM,14
same,Upregulated Genes: AZA-Specific / DAC-Specific Genes (number),"A549 cells [4]; 0.3 μM, fold change ≧1.7",16
same,Downregulated Genes: Genes in Common (number),A549 cells [4]; 0.3 μM,11
same,Upregulated Genes: Genes in Common (number),A549 cells [4]; 0.3 μM,17
same,Downregulated Genes: AZA-Specific / DAC-Specific Genes (number),A549 cells [4]; 1.0 μM,273
same,Upregulated Genes: AZA-Specific / DAC-Specific Genes (number),A549 cells [4]; 1.0 μM,279
same,Downregulated Genes: Genes in Common (number),A549 cells [4]; 1.0 μM,30
same,Upregulated Genes: Genes in Common (number),A549 cells [4]; 1.0 μM,45
same,Downregulated Genes: AZA-Specific / DAC-Specific Genes (number),A549 cells [4]; 3.0 μM,560
same,Upregulated Genes: AZA-Specific / DAC-Specific Genes (number),A549 cells [4]; 3.0 μM,636
same,Downregulated Genes: Genes in Common (number),A549 cells [4]; 3.0 μM,55
same,Upregulated Genes: Genes in Common (number),A549 cells [4]; 3.0 μM,66
same,Regulation of genes in the Response to DNA Damage Stimulus/DNA Repair biogroup,A549 cells [4],general upregulation
same,DNMT1 protein levels,DNMT1 [5]; 20 hours,significantly reduced
same,HillSlope,H1299 cells [6],−1.138
same,LogIC50,H1299 cells [6],0.7095
same,EC50,H1299 cells [6],5.1 µM
same,IC50,H1299 cells [6],5.12 µM
same,Early- and late-apoptotic cell populations (AnnexinV/7-AAD),H1299 cells [7]; 48-hour treatment,dramatic increase in early-apoptotic (AnnexinV^+ 7-AAD^−) and late-apoptotic (AnnexinV^+ 7-AAD^+) cells
same,Early- and late-apoptotic cell populations (AnnexinV/7-AAD),H1299 cells [7]; 72-hour treatment,dramatic increase in early-apoptotic (AnnexinV^+ 7-AAD^−) and late-apoptotic (AnnexinV^+ 7-AAD^+) cells
same,DNMT1 depletion,DNMT1 [8],time- and dose-dependent depletion
same,Early- and late-apoptotic cell populations (AnnexinV/7-AAD),H460 cells [9]; 30-hour treatment,dramatic increase in early-apoptotic (AnnexinV^+7-AAD^−) and late-apoptotic (AnnexinV^+7-AAD^−) cells
same,Early- and late-apoptotic cell populations (AnnexinV/7-AAD),H460 cells [9]; 48-hour treatment,dramatic increase in early-apoptotic (AnnexinV^+7-AAD^−) cells
same,Cell cycle distribution (NIM DAPI),H1975 cells,decrease of cells in G0/G1 and accumulation of cells in G2/M and Sub-G1
"Nc1ncn([C@H]2C[C@H](O)[C@@H](CO)O2)c(=O)n1 [DAC, 5-aza-2′-deoxycytidine]",Early- and late-apoptotic cell populations (AnnexinV/7-AAD),A549 cells [1]; 48-hour treatment,very slight increase in these cell populations
same,Early- and late-apoptotic cell populations (AnnexinV/7-AAD),A549 cells [1]; 72-hour treatment,very slight increase in these cell populations; also recorded: slight increase in early-apoptotic (AnnexinV^+ 7-AAD^−) cells only
same,HillSlope,A549 cells [2],−0.4617
same,LogIC50,A549 cells [2],1.556
same,EC50,A549 cells [2],> 25 µM
same,IC50,A549 cells [2],35.9 µM
same,Cell cycle distribution (NIM DAPI),"H460 cells [3]; 30-hour treatment, 0.3-10 μM",induced accumulation of cells in Sub-G1
same,Cell cycle distribution (NIM DAPI),"H460 cells [3]; 60-hour treatment, 0.3-10 μM",slight increase in Sub-G1
same,Cell cycle distribution (NIM DAPI),H460 cells [3]; summary of studies,induced accumulation of cells in Sub-G1
same,Fold more genes modulated than AZA,"A549 cells [4]; A549 (stated for A549 and H1299 together), 0.3 μM",4- to 20 fold
same,Downregulated Genes: AZA-Specific / DAC-Specific Genes (number),A549 cells [4]; 0.3 μM,55
same,Upregulated Genes: AZA-Specific / DAC-Specific Genes (number),"A549 cells [4]; 0.3 μM, fold change ≧1.7",139
same,Downregulated Genes: Genes in Common (number),A549 cells [4]; 0.3 μM,11
same,Upregulated Genes: Genes in Common (number),A549 cells [4]; 0.3 μM,17
same,Downregulated Genes: AZA-Specific / DAC-Specific Genes (number),A549 cells [4]; 1.0 μM,111
same,Upregulated Genes: AZA-Specific / DAC-Specific Genes (number),A549 cells [4]; 1.0 μM,261
same,Downregulated Genes: Genes in Common (number),A549 cells [4]; 1.0 μM,30
same,Upregulated Genes: Genes in Common (number),A549 cells [4]; 1.0 μM,45
same,Downregulated Genes: AZA-Specific / DAC-Specific Genes (number),A549 cells [4]; 3.0 μM,239
same,Upregulated Genes: AZA-Specific / DAC-Specific Genes (number),A549 cells [4]; 3.0 μM,413
same,Downregulated Genes: Genes in Common (number),A549 cells [4]; 3.0 μM,55
same,Upregulated Genes: Genes in Common (number),A549 cells [4]; 3.0 μM,66
same,Regulation of genes in the Response to DNA Damage Stimulus/DNA Repair biogroup,A549 cells [4],general downregulation
same,DNMT1 depletion,"DNMT1 [5]; 0.3-10 μM, 48 h (Example 5)",able to cause DNMT1 depletion
same,Relative potency in reducing DNMT1 levels,DNMT1 [5]; 20 hours,more potent than AZA
same,DNMT1 protein levels,DNMT1 [5]; 20 hours,significantly reduced
same,HillSlope,H1299 cells [6],−0.4536
same,LogIC50,H1299 cells [6],0.7153
same,EC50,H1299 cells [6],5.2 µM
same,IC50,H1299 cells [6],5.19 µM
same,Early- and late-apoptotic cell populations (AnnexinV/7-AAD),H1299 cells [7]; 48-hour treatment,very slight increase in these cell populations
same,Early- and late-apoptotic cell populations (AnnexinV/7-AAD),H1299 cells [7]; 72-hour treatment,very slight increase in these cell populations
same,DNMT1 depletion,DNMT1 [8],time- and dose-dependent depletion
same,Early- and late-apoptotic cell populations (AnnexinV/7-AAD),H460 cells [9]; 30-hour treatment,very slight increase in these cell populations; also recorded: very slight increase in this cell population
same,Early- and late-apoptotic cell populations (AnnexinV/7-AAD),H460 cells [9]; 48-hour treatment,some increase in this cell population
same,Cell cycle distribution (NIM DAPI),H1975 cells,slight increases in G2/M and Sub-G1
